Data reported in PubChem BioAssay (NCI).
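96-well plates; 48 h exposure; 5 concentrations. Endpoints by linear interpolation between flanking doses. Not reached: highest tested concentration assigned. At the GI50, growth is halved. TGI is the concentration that stops growth completely.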

Tests used:
Experiment in all cases: NCI anticancer screen, dose series, 48 h
EKVX NSCLC = system: EKVX NSCLC
HCT-116 colon = system: HCT-116 colon
IGROV1 ovarian = system: IGROV1 ovarian
M14 melanoma = system: M14 melanoma
MCF7 breast = system: MCF7 breast
NCI/ADR-RES ovarian = system: NCI/ADR-RES ovarian
RPMI-8226 leukemia = system: RPMI-8226 leukemia
K-562 leukemia = system: K-562 leukemia
MALME-3M melanoma = system: MALME-3M melanoma
SK-OV-3 ovarian = system: SK-OV-3 ovarian

| Structure (SMILES) | GI50 (EKVX NSCLC) [µM] | TGI (EKVX NSCLC) [µM] | GI50 (HCT-116 colon) [µM] | TGI (HCT-116 colon) [µM] | GI50 (IGROV1 ovarian) [µM] | TGI (IGROV1 ovarian) [µM] | GI50 (M14 melanoma) [µM] | TGI (M14 melanoma) [µM] | GI50 (MCF7 breast) [µM] | TGI (MCF7 breast) [µM] | GI50 (NCI/ADR-RES ovarian) [µM] | TGI (NCI/ADR-RES ovarian) [µM] | GI50 (RPMI-8226 leukemia) [µM] | TGI (RPMI-8226 leukemia) [µM] | TGI (K-562 leukemia) [µM] | TGI (MALME-3M melanoma) [µM] | TGI (SK-OV-3 ovarian) [µM] | GI50 (K-562 leukemia) [µM] | GI50 (MALME-3M melanoma) [µM] | GI50 (SK-OV-3 ovarian) [µM] |
| --- | --- | --- | --- | --- | --- | --- | --- | --- | --- | --- | --- | --- | --- | --- | --- | --- | --- | --- | --- | --- |
| COc1cc([N+](=O)[O-])c(OC)cc1-c1nc2sc(C)c(C)n2c1/C(N)=N/C(=N)N | > 100 | > 100 | > 100 | > 100 | > 100 | > 100 | > 100 | > 100 | 1.53 | > 100 | > 100 | > 100 | 59.3 | > 100 | – | – | – | – | – | – |
| Cc1ccc(NC(=O)CCc2nc(=S)[nH][nH]2)cc1 | – | > 100 | – | > 100 | – | > 100 | – | > 100 | – | – | – | – | – | > 100 | > 100 | > 100 | > 100 | – | – | – |
| CSC1=NC(=Nc2c(C)cccc2C)C2(CCC(C(C)(C)C)CC2)N1c1ccc(Cl)cc1 (centres undefined) | – | – | 4.87 | > 100 | 63.5 | > 100 | 68.2 | > 100 | 26.5 | > 100 | 77.7 | > 100 | 6.35 | > 100 | > 100 | > 100 | > 100 | 4.76 | 42.6 | > 100 |
| CN=c1ss/c(=N\C(=S)N(C)C)n1C | – | > 100 | – | > 100 | – | > 100 | – | > 100 | – | – | – | – | – | > 100 | > 100 | > 100 | > 100 | – | – | – |
| O=C1NC(=NCCc2ccc(F)cc2)S/C1=C\c1ccc2ncccc2c1 | – | – | 13.8 | > 25 | > 25 | > 25 | > 25 | > 25 | > 23.1 | > 25 | > 25 | > 25 | > 25 | > 25 | > 25 | > 25 | > 25 | > 25 | > 25 | > 25 |
| COc1cc[c]([Sn]([c]2ccc(OC)cc2)([c]2ccc(OC)cc2)[c]2ccc(OC)cc2)cc1 | 35 | > 100 | 8.92 | – | 25.9 | > 100 | 16.7 | 36 | – | – | – | – | 11.2 | 35.1 | 56.1 | 8.43 | > 100 | 16.2 | 3.31 | 96.5 |
| Nc1nnc2c(-c3ccccc3)[nH]nc2n1 | – | > 100 | – | > 100 | – | – | – | > 100 | – | – | – | – | – | > 100 | > 100 | – | – | – | – | – |
| COC1C2C[C@@H](O)CCC2C(C(=O)OCCl)C[C@H]1O (some centres undefined) | – | – | – | > 100 | – | > 100 | – | > 100 | – | – | – | – | – | > 100 | > 100 | > 100 | > 100 | – | – | – |
| NC(=O)c1ccc2c(c1)-c1nc-2nc2[n-]c(nc3nc(nc4[n-]c(n1)c1ccc(C(N)=O)cc41)-c1ccc(C(N)=O)cc1-3)c1ccc(C(N)=O)cc21.[Co+2] | > 50 | > 50 | > 50 | > 50 | > 50 | > 50 | 26 | > 50 | – | – | – | – | > 50 | > 50 | > 50 | > 50 | > 50 | 46.6 | > 50 | > 50 |
